Reference: US10682351B2, “Methods of administering elagolix” (AbbVie Inc., priority 2015, dated 2020)
Like-named read-outs stand apart in the source and are kept apart here.

Tests used:
[1] = Safety in elagolix/ketoconazole interaction study (adverse events, vital signs, ECGs, laboratory tests); assay type: in vivo, human
Protocol: (§1) Each subject received elagolix 150 mg single dose alone and on the 4th day of a six-day regimen of ketoconazole 400 mg q.d.
Adverse event rates across treatment periods were 0% (elagolix alone), 82% (ketoconazole alone), and 36% (co-administration). The most common adverse event was nausea, which was noted as probably related to ketoconazole alone. […] Mean elagolix plasma concentration—time profiles for elagolix administered with ketoconazole, versus elagolix administered alone, are shown in FIG. 2.

[2] = Pharmacokinetic interaction between elagolix and ketoconazole (open-label, two-period, sequential study); assay type: in vivo, human; details: elagolix 150 mg single dose on 4th day of six-day ketoconazole 400 mg q.d. vs elagolix alone; healthy premenopausal females
Protocol: In a second embodiment of this invention, it was discovered that ketoconazole increased elagolix exposure levels.
as §1
Analysis of variance was performed to compare the pharmacokinetic parameters of elagolix with and without ketoconazole.

[3] = in vivo
Protocol: This was an open-label, two-period, sequential study conducted in 12 females chosen according to the protocol selection criteria. Each subject received elagolix 150 mg single dose with and without rifampin 600 mg q.d. for 10 days. Intensive blood samples for elagolix assay were collected up to 36 hours after elagolix dosing in both periods. Safety data, including adverse event monitoring, vital signs, ECGs, and laboratory tests were collected during the study.
Values for elagolix maximum concentration (Cmax) and area-under-the-curve (AUC) were estimated using noncompartmental methods. Analysis of variance was performed to compare elagolix Cmax and AUC with and without rifampin.

Work on `CC(=O)N1CCN(c2ccc(OCC3COC(Cn4ccnc4)(c4ccc(Cl)cc4Cl)O3)cc2)CC1` (centres unmarked) [ketoconazole, Ketoconazole, reference compound] yielded an Adverse event rate ([1]; drug alone treatment period, elagolix 150 mg single dose or ketoconazole 400 mg q.d., healthy premenopausal females) of 82%.
With `COc1cccc(-c2c(C)n(Cc3c(F)cccc3C(F)(F)F)c(=O)n(C[C@H](NCCCC(=O)[O-])c3ccccc3)c2=O)c1F.[Na+]` [Elagolix, 4-((R)-2-[5-(2-fluoro-3-methoxy-phenyl)-3-(2-fluoro-6-trifluoromethyl-benzyl)-4-methyl-2,6-dioxo-3,6-dihydro-2H-pyrimidin-1-yl]-1-phenyl-ethylamino)-butyric acid sodium salt] the “Elagolix AUC increase” value [2] was 2.2 fold, the “Elagolix Cmax increase” value [2] was 1.8 fold and the “Vital signs, ECG or laboratory measurements” value ([1]; in vivo) was “No clinically significant vital signs, ECG or laboratory measurements were observed”. For the same compound, the “Vital signs, ECG or laboratory measurements” value [3] was “No clinically significant vital signs, ECG or laboratory measurements were observed”.
